# Experimental data from ChEMBL document CHEMBL5465560, “Selectivity Literature for EUbOPEN Chemogenomic Library” (2024).
# Experiments:
# [1] = system: Leucine-rich repeat serine/threonine-protein kinase 2 (Homo sapiens), Q5S007 [G2019S]; assay: (§1) Selectivity interaction (KinomeScan (DiscoverX)) EUB0000595a LRRK2; settings: at 10 µM
# [2] = biological target: Leucine-rich repeat serine/threonine-protein kinase 2 (Homo sapiens, UniProt Q5S007); assay: as §1; settings: at 10 µM
# [3] = biological target: Dual specificity mitogen-activated protein kinase kinase 1 (Homo sapiens, UniProt Q02750); assay: Selectivity interaction (Kinase panel (DSF assay)) EUB0001559a MAP2K1
# [4] = biological target: Atypical kinase COQ8A, mitochondrial (Homo sapiens, UniProt Q8NI60); assay: Selectivity interaction (KinomeScan (DiscoverX)) EUB0000045b ADCK3
# Atypical kinase COQ8A, mitochondrial, sequence (Q8NI60 163-647 limits assumed): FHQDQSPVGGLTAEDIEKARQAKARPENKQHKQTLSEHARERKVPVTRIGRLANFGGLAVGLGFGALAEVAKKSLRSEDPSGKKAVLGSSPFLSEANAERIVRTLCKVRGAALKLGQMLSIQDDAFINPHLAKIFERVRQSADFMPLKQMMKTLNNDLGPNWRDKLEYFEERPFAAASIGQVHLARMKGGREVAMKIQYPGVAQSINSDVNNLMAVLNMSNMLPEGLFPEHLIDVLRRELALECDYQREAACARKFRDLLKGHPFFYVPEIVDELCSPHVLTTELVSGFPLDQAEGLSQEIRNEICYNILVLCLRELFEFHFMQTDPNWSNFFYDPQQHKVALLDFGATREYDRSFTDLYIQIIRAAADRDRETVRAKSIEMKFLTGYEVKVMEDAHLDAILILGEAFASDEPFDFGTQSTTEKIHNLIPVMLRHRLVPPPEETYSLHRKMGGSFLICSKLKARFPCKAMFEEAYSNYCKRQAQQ
# [5] = biological target: Macrophage colony-stimulating factor 1 receptor (Homo sapiens) (UniProt P07333); assay: Selectivity interaction (Kinase screening (Nanosyn)) EUB0000604a CSF1R
# Macrophage colony-stimulating factor 1 receptor (Homo sapiens), sequence (P07333 whole entry): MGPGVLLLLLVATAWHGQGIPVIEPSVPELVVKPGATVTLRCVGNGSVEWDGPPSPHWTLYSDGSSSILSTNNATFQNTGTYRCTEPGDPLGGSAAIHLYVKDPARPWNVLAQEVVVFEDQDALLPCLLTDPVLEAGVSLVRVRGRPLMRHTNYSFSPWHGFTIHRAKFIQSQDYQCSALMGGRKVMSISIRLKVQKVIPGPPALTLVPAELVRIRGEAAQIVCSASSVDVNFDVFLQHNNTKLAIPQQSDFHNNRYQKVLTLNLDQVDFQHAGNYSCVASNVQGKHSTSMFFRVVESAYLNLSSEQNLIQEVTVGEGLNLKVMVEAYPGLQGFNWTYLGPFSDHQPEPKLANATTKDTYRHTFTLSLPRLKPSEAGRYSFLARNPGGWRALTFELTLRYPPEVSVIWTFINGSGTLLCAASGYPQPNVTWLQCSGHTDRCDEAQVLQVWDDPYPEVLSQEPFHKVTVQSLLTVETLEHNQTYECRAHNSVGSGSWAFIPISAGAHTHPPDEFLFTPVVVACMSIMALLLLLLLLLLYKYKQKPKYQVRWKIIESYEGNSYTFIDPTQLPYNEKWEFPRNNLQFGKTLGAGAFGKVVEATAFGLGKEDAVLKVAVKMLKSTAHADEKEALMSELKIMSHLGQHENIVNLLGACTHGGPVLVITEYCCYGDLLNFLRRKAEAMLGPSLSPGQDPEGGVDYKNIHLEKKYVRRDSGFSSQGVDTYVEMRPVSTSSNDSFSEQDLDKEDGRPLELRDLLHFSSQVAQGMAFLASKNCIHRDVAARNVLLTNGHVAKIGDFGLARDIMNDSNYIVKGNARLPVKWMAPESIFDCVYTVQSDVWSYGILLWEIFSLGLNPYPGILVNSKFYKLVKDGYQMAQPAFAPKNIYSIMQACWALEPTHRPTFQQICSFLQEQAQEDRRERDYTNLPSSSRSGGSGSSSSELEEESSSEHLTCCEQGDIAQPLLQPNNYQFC
# [6] = biological target: Sodium-dependent dopamine transporter (Homo sapiens, UniProt Q01959); assay: Selectivity interaction (Safety Panel 44tm (Eurofins)) EUB0000162b SLC6A3; settings: at 10 µM
# [7] = biological target: T1, Dual specificity mitogen-activated protein kinase kinase 5 (Homo sapiens) (UniProt Q13163); assay: Selectivity interaction (KinomeScan (DiscoverX)) EUB0001049a MAP2K5; settings: at 1 µM
# T1 sequence (whole entry): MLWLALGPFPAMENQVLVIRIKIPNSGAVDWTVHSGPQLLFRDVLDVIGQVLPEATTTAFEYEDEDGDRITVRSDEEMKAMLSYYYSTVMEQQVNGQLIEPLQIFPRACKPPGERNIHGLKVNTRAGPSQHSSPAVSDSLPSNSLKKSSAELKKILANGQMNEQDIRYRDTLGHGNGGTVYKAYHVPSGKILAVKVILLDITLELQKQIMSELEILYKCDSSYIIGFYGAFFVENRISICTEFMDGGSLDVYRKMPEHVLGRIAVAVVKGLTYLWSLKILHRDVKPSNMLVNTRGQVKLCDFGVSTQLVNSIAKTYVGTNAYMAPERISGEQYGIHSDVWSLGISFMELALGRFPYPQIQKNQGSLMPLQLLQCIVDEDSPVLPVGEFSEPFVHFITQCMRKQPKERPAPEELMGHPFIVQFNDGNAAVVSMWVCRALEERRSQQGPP
# [8] = biological target: T2, Uncharacterized serine/threonine-protein kinase SBK3 (Homo sapiens) (UniProt P0C264); assay: Selectivity interaction (KinomeScan (DiscoverX)) EUB0001619a SBK3; settings: at 1 µM
# T2 sequence (whole entry): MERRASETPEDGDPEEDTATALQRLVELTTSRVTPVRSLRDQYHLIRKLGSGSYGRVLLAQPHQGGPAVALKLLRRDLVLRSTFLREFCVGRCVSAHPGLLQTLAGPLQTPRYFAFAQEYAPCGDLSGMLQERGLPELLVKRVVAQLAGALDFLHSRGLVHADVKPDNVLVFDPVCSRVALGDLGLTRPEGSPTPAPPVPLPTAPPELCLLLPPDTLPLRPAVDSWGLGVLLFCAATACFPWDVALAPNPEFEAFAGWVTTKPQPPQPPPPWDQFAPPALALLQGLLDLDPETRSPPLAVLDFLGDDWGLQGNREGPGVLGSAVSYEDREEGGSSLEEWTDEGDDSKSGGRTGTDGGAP
# [9] = biological target: SRSF protein kinase 3 (Homo sapiens) (UniProt Q9UPE1); assay: Selectivity interaction (KinomeScan (DiscoverX)) EUB0000607a SRPK3; settings: at 10 µM
# SRSF protein kinase 3 (Homo sapiens), sequence (Q9UPE1 whole entry): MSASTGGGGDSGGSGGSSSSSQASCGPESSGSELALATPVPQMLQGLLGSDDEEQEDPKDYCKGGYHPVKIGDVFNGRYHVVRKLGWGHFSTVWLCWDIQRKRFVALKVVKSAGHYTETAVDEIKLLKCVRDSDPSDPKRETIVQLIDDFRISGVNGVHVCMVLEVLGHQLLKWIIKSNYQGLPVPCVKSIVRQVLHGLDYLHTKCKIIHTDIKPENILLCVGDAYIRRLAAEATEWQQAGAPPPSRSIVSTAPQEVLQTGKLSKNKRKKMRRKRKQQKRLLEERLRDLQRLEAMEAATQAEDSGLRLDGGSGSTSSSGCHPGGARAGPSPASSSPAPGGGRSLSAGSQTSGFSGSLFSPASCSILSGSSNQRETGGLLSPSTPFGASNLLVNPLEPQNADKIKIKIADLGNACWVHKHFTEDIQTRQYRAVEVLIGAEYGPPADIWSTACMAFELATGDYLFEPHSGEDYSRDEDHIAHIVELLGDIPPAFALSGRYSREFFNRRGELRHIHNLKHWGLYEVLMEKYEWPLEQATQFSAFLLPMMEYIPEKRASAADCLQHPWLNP
# [10] = biological target: STE20/SPS1-related proline-alanine-rich protein kinase (Homo sapiens) (UniProt Q9UEW8); assay: Selectivity interaction (Kinase panel (DSF assay)) EUB0001558a STK39
# [11] = biological target: Tyrosine-protein kinase Fyn (Homo sapiens) (UniProt P06241); assay: Selectivity interaction (ActivX KiNativ screen (kinase selectivity in THP-1 cell lysates)) EUB0000639a FYN; format: subcellular; settings: lysate, at 0.2 µM
# Tyrosine-protein kinase Fyn (Homo sapiens), sequence (P06241 2-537 limits assumed): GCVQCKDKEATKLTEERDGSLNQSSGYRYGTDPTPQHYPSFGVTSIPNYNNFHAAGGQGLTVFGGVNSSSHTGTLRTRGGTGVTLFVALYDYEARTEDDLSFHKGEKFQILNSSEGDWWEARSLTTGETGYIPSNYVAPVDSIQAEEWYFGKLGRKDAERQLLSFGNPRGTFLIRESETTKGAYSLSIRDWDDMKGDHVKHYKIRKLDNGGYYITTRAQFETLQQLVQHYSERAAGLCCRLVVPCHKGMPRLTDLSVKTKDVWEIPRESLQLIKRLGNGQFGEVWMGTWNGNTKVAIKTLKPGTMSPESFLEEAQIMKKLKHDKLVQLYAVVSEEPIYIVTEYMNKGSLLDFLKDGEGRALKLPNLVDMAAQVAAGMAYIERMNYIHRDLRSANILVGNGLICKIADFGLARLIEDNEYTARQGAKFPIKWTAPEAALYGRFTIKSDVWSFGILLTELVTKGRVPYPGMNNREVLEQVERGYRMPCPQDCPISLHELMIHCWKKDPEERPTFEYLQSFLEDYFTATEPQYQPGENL
# [12] = biological target: T3, Mitogen-activated protein kinase kinase kinase kinase 3 (Homo sapiens) (UniProt Q8IVH8); assay: Selectivity interaction (Ambit KINOMEscan and KiNATiv profiling in Jurkat cells) EUB0000090b MAP4K3; format: cell-based; settings: at 1 µM
# T3 sequence (whole entry): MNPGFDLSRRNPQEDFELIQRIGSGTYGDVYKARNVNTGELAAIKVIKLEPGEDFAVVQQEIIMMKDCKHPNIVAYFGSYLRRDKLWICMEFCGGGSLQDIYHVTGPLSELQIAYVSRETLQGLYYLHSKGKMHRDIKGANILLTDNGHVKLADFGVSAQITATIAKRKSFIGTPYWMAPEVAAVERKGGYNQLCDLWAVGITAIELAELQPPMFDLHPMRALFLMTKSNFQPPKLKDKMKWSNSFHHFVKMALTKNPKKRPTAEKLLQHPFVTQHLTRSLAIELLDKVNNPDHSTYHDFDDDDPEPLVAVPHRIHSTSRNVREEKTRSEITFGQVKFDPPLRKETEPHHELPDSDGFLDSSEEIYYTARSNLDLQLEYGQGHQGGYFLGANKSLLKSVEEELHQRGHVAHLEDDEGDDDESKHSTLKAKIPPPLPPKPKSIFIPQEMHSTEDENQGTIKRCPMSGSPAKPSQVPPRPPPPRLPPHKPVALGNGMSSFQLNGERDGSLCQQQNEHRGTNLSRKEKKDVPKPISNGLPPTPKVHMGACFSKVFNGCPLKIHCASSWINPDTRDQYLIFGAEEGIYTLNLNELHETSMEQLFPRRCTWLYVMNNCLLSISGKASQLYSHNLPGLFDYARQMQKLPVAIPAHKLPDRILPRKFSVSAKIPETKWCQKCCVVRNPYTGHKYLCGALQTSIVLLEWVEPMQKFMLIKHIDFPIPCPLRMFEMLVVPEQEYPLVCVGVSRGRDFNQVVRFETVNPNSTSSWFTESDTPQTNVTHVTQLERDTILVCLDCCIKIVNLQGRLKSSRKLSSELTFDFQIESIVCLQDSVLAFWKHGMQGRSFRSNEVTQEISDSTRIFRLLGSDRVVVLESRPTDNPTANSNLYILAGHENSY
# Leucine-rich repeat serine/threonine-protein kinase 2 (Homo sapiens), Q5S007 [G2019S], sequence (Q5S007 whole entry G2019S): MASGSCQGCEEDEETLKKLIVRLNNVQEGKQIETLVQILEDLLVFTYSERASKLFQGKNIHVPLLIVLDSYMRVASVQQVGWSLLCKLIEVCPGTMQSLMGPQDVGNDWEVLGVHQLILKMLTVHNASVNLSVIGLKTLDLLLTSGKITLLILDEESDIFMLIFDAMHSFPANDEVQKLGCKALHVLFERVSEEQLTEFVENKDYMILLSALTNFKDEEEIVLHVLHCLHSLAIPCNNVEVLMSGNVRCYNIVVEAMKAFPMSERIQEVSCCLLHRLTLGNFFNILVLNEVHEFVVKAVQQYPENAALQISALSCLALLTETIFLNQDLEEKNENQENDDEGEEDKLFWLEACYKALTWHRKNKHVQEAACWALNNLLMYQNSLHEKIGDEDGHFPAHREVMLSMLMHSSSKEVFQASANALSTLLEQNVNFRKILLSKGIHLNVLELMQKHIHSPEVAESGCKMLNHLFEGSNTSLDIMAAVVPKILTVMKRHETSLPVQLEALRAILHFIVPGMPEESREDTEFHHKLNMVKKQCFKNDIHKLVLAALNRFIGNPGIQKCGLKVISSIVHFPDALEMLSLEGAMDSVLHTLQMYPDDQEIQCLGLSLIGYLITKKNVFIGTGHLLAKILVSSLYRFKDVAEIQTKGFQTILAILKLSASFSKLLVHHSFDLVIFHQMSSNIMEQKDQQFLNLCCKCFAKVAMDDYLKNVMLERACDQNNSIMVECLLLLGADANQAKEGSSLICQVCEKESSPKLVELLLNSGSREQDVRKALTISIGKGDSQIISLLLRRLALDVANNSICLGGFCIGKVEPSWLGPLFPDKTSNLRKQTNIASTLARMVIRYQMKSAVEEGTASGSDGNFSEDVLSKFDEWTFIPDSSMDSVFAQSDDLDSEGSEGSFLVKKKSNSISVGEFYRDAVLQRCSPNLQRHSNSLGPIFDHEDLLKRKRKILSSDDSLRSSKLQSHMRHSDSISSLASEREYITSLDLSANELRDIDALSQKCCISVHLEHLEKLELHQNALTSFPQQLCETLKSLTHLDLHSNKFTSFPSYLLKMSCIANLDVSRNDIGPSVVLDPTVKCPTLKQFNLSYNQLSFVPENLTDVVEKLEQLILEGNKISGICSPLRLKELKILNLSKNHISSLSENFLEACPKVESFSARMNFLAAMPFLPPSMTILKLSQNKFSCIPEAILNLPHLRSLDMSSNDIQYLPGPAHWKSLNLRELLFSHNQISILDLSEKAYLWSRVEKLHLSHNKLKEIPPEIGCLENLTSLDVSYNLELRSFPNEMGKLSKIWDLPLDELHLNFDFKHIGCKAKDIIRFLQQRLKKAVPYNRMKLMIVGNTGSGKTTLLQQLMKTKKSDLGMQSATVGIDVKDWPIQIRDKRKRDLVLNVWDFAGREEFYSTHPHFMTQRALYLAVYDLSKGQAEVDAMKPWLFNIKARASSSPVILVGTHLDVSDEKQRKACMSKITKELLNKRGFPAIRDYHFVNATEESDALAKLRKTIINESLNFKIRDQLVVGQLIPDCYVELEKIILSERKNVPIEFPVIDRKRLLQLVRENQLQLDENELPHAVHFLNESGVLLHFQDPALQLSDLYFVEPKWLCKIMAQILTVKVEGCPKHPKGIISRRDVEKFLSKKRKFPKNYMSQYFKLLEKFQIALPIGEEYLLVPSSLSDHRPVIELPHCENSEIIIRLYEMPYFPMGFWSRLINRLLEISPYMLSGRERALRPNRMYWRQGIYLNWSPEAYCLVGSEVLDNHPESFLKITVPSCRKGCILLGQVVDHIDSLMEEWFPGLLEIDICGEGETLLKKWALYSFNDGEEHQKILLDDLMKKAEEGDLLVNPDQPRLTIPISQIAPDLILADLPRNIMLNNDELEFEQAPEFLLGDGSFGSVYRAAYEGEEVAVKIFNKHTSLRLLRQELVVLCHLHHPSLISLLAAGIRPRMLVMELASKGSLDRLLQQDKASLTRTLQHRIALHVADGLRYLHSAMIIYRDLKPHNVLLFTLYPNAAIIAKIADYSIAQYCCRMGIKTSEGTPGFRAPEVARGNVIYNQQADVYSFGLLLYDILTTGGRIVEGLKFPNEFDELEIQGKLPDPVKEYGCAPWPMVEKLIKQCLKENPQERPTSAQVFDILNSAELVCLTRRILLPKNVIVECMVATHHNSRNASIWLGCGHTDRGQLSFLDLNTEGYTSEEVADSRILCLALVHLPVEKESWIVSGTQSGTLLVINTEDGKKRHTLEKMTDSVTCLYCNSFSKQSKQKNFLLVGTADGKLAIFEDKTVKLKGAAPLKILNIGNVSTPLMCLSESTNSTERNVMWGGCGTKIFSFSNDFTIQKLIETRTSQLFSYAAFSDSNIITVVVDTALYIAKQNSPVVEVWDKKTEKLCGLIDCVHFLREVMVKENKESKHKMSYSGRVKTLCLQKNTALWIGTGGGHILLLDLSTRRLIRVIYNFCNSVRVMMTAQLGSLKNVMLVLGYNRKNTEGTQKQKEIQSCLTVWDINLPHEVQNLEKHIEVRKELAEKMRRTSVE
structure (smiles),measurement,setting,value
COCC(=O)NC/C=C/c1ccc2ncnc(Nc3ccc(Oc4ccc(C)nc4)c(C)c3)c2c1 [CP-724714],% of control,[1],98%
same,% of control,[2],100%
CN(C(=O)c1cnn2cccnc12)c1cc2c(cc1N1CCOCC1)C(=O)N(C[C@@H](F)C(C)(C)O)C2,dTM,[3],-0.8 K
C=CC(=O)Nc1cc(-n2c(=O)ccc3cnc4ccc(-c5ccc(NS(C)(=O)=O)cc5)cc4c32)ccc1C,% of control,[4]; at 1 µM,100%
same,% of control,[4]; at 10 µM,82%
Cc1cnc(Nc2ccc(F)cc2Cl)nc1-c1c[nH]c(C(=O)N[C@H](CO)c2cccc(Cl)c2)c1,% of inhibition,[5],6%
CN(C)C(=O)Cn1cc(-c2ccc(-c3cncc4ccccc34)cc2)cn1,% of control,[6],87%
COc1cc(Nc2nc(C)cc(-c3cnn4nc(OC)ccc34)n2)cc(C(F)(F)F)c1,% of control,[7],85%
N#Cc1cccc(-c2c[nH]c3ncnc(N4CCOCC4)c23)c1,% of control,[8],100%
CNC(=O)Nc1ccc(-c2nc(N3CC4CCC(C3)O4)c3cnn(C4CCC5(CC4)OCCO5)c3n2)cc1,% of control,[9],100%
CC(C)(O)[C@H](F)CN1Cc2cc(NC(=O)c3cnn4cccnc34)c(N3CCOCC3)cc2C1=O,dTM,[10],0.2 K
CC[C@@H]1[C@H](F)C(=O)N[C@@H]1COc1nccc2cc(C(N)=O)c(OC)cc12 [ZIMLOVISERTIB],% of inhibition,[11],0.7%
CN(C)C/C=C/C(=O)Nc1ccc(C(=O)N2CCCC(Nc3ncc(Cl)c(-c4c[nH]c5ccccc45)n3)C2)cc1 (stereo not drawn),% of control,[12],95%
